Experiments:
[1] = Measurement of blood glucose level in rat STZ-induced diabetes model; format: in vivo; details: mean ± SE
Description: (§1) Compound 9 (50 mg/mL) was diluted with water for injection to obtain a 1 mg/mL administration specimen. For the specimens to be administered at 0.1 mg/mL and 0.01 mg/mL, the specimen to be administered at 1 mg/mL was diluted stepwise with water for injection. Each administration specimen was divided into PP disposable tubes every day and stored in a storehouse (freezer: MDF-MU339H-PJ, PHC Corporation) under the condition of freezing (−30° C. to −20° C., measured value: −26.4 to −24.5° C.). Preparation was performed on the day before the start of administration.
(§2) Water for injection was added to and dissolved in Pregabalin taken out from the capsule to obtain 2 mg/mL. It was prepared before use.
(§3) • Animal species: rat (SPF) • Strain: Crl: CD (SD) • Date of animal acquisition, gender, age in weeks, number of animals acquired, and weight range after 1 day of acquisition • First and second courses: Apr. 6, 2022, male, 7 weeks old, 35 animals, 217 to 237 g • Third and fourth courses: Apr. 13, 2022, male, 7 weeks old, 35 animals, 216 to 235 g • Source: […].
(§4) • Dose volume: calculated at 2 mL/kg based on the body weight on the day of administration. • Number of times of administration: once • Day of administration: 7 days before the day of starting administration of the test substance.
(§5) • Dose volume: calculated at 1 mL/kg based on the body weight on the day of administration. • Number of times of administration: 9 times • Interval of administration: once every 3 days (evaluation was performed on the day after administration) • Day of starting administration: day 8 of STZ administration (day of STZ administration is counted as day 1).
(§6) • Dose volume: calculated at 10 mL/kg based on the body weight on the day of administration. • Number of times of administration: Administration was performed once on the day of evaluation of neuropathic pain, twice in total, and on the other days of administration, a vehicle for a control substance (water for injection) was orally administered.
On days 7 and 35 of STZ administration, about 50 μL of blood was collected from the tail vein using a winged injection needle (Terumo Corporation) equipped with a heparinized capillary (DRUMMOND […]).
The blood obtained above was centrifuged [centrifugal conditions: 4° C., 3,000 rpm (×2,150 g), 15 min] with a centrifuge (CF 9RX, Hitachi Koki Co., Ltd.) to obtain plasma. Blood glucose levels of a part of plasma obtained by blood collection on day 7 and day 35 after STZ administration were measured by hexokinase G-6 PDH method (L-type Wako Glu2, FUJIFILM Wako Pure Chemical Corporation) using a biochemical automatic analyzer (AU480, Beckman Coulter, Inc.). […] The plasma after the measurement was discarded.
The mean and standard error of each group were calculated for the 50% withdrawal threshold, body weight, and blood glucose level.
The body weight was an integer.
No significant difference test of body weight and blood glucose levels was performed.

[2] = Observation of general condition in rat STZ-induced diabetes model; format: in vivo; details: number of animals, 10 per group
Description: as §1, §2, §3, §4, §5, §6
• Observation of general condition • Observation was performed once a day.

[3] = 0.01 mg/kg iv, day 35 of STZ administration
[4] = 0.1 mg/kg iv, day 35 of STZ administration
[5] = 1 mg/kg iv, day 35 of STZ administration

CC[C@@]1(C)Oc2cc(ccc2O)C[C@H](NC)C(=O)N[C@@H](C(C)C)C(=O)N[C@@H]1C(=O)N[C@@H](CC(=O)O)C(=O)O [Compound 9]
Blood glucose level, Glu ([1]; 0.01 mg/kg iv group, day 7 of STZ administration (before start of dosing)): 581.8 ± 18.5 mg/dL | Blood glucose level, Glu [1, 3]: 623.6 ± 22.0 mg/dL | Blood glucose level, Glu ([1]; 0.1 mg/kg iv group, day 7 of STZ administration (before start of dosing)): 576.3 ± 15.5 mg/dL | Blood glucose level, Glu [1, 4]: 608.4 ± 32.7 mg/dL | Blood glucose level, Glu ([1]; 1 mg/kg iv group, day 7 of STZ administration (before start of dosing)): 562.7 ± 14.7 mg/dL | Blood glucose level, Glu [1, 5]: 605.6 ± 18.9 mg/dL | general condition ([2]; 0.01 mg/kg iv, day 1 of STZ administration): 10 | general condition ([2]; 0.01 mg/kg iv, day 2 of STZ administration): 10 | general condition ([2]; 0.01 mg/kg iv, day 3 of STZ administration): 10 | general condition ([2]; 0.01 mg/kg iv, day 4 of STZ administration): 10 | general condition ([2]; 0.01 mg/kg iv, day 5 of STZ administration): 10 | general condition ([2]; 0.01 mg/kg iv, day 6 of STZ administration): 10 | general condition ([2]; 0.01 mg/kg iv, day 7 of STZ administration): 10 | general condition ([2]; 0.01 mg/kg iv, day 8 of STZ administration): 10 | general condition ([2]; 0.01 mg/kg iv, day 9 of STZ administration): 10 | general condition ([2]; 0.01 mg/kg iv, day 10 of STZ administration): 10 | general condition ([2]; 0.01 mg/kg iv, day 11 of STZ administration): 10 | general condition ([2]; 0.01 mg/kg iv, day 12 of STZ administration): 10 | general condition ([2]; 0.01 mg/kg iv, day 13 of STZ administration): 10 | general condition ([2]; 0.01 mg/kg iv, day 14 of STZ administration): 10 | general condition ([2]; 0.01 mg/kg iv, day 15 of STZ administration): 10 | general condition ([2]; 0.01 mg/kg iv, day 16 of STZ administration): 10 | general condition ([2]; 0.01 mg/kg iv, day 17 of STZ administration): 10 | general condition ([2]; 0.01 mg/kg iv, day 18 of STZ administration): 10 | general condition ([2]; 0.01 mg/kg iv, day 19 of STZ administration): 10 | general condition ([2]; 0.01 mg/kg iv, day 20 of STZ administration): 10 | general condition ([2]; 0.01 mg/kg iv, day 21 of STZ administration): 10 | general condition ([2]; 0.01 mg/kg iv, day 22 of STZ administration): 10 | general condition ([2]; 0.01 mg/kg iv, day 23 of STZ administration): 10 | general condition ([2]; 0.01 mg/kg iv, day 24 of STZ administration): 10 | general condition ([2]; 0.01 mg/kg iv, day 25 of STZ administration): 10 | general condition ([2]; 0.01 mg/kg iv, day 26 of STZ administration): 10 | general condition ([2]; 0.01 mg/kg iv, day 27 of STZ administration): 10 | general condition ([2]; 0.01 mg/kg iv, day 28 of STZ administration): 10 | general condition ([2]; 0.01 mg/kg iv, day 29 of STZ administration): 10 | general condition ([2]; 0.01 mg/kg iv, day 30 of STZ administration): 10 | general condition ([2]; 0.01 mg/kg iv, day 31 of STZ administration): 10 | general condition ([2]; 0.01 mg/kg iv, day 32 of STZ administration): 10 | general condition ([2]; 0.01 mg/kg iv, day 33 of STZ administration): 10 | general condition ([2]; 0.01 mg/kg iv, day 34 of STZ administration): 10 | general condition [2, 3]: 10 | general condition ([2]; 0.1 mg/kg iv, day 1 of STZ administration): 10 | general condition ([2]; 0.1 mg/kg iv, day 2 of STZ administration): 10 | general condition ([2]; 0.1 mg/kg iv, day 3 of STZ administration): 10 | general condition ([2]; 0.1 mg/kg iv, day 4 of STZ administration): 10 | general condition ([2]; 0.1 mg/kg iv, day 5 of STZ administration): 10 | general condition ([2]; 0.1 mg/kg iv, day 6 of STZ administration): 10 | general condition ([2]; 0.1 mg/kg iv, day 7 of STZ administration): 10 | general condition ([2]; 0.1 mg/kg iv, day 8 of STZ administration): 10 | general condition ([2]; 0.1 mg/kg iv, day 9 of STZ administration): 10 | general condition ([2]; 0.1 mg/kg iv, day 10 of STZ administration): 10 | general condition ([2]; 0.1 mg/kg iv, day 11 of STZ administration): 10 | general condition ([2]; 0.1 mg/kg iv, day 12 of STZ administration): 10 | general condition ([2]; 0.1 mg/kg iv, day 13 of STZ administration): 10 | general condition ([2]; 0.1 mg/kg iv, day 14 of STZ administration): 10 | general condition ([2]; 0.1 mg/kg iv, day 15 of STZ administration): 10 | general condition ([2]; 0.1 mg/kg iv, day 16 of STZ administration): 10 | general condition ([2]; 0.1 mg/kg iv, day 17 of STZ administration): 10 | general condition ([2]; 0.1 mg/kg iv, day 18 of STZ administration): 10 | general condition ([2]; 0.1 mg/kg iv, day 19 of STZ administration): 10 | general condition ([2]; 0.1 mg/kg iv, day 20 of STZ administration): 10 | general condition ([2]; 0.1 mg/kg iv, day 21 of STZ administration): 10 | general condition ([2]; 0.1 mg/kg iv, day 22 of STZ administration): 10 | general condition ([2]; 0.1 mg/kg iv, day 23 of STZ administration): 10 | general condition ([2]; 0.1 mg/kg iv, day 24 of STZ administration): 10 | general condition ([2]; 0.1 mg/kg iv, day 25 of STZ administration): 10 | general condition ([2]; 0.1 mg/kg iv, day 26 of STZ administration): 10 | general condition ([2]; 0.1 mg/kg iv, day 27 of STZ administration): 10 | general condition ([2]; 0.1 mg/kg iv, day 28 of STZ administration): 10 | general condition ([2]; 0.1 mg/kg iv, day 29 of STZ administration): 10 | general condition ([2]; 0.1 mg/kg iv, day 30 of STZ administration): 10 | general condition ([2]; 0.1 mg/kg iv, day 31 of STZ administration): 10 | general condition ([2]; 0.1 mg/kg iv, day 32 of STZ administration): 10 | general condition ([2]; 0.1 mg/kg iv, day 33 of STZ administration): 10 | general condition ([2]; 0.1 mg/kg iv, day 34 of STZ administration): 10 | general condition [2, 4]: 10 | general condition ([2]; 1 mg/kg iv, day 1 of STZ administration): 10 | general condition ([2]; 1 mg/kg iv, day 2 of STZ administration): 10 | general condition ([2]; 1 mg/kg iv, day 3 of STZ administration): 10 | general condition ([2]; 1 mg/kg iv, day 4 of STZ administration): 10 | general condition ([2]; 1 mg/kg iv, day 5 of STZ administration): 10 | general condition ([2]; 1 mg/kg iv, day 6 of STZ administration): 10 | general condition ([2]; 1 mg/kg iv, day 7 of STZ administration): 10 | general condition ([2]; 1 mg/kg iv, day 8 of STZ administration): 10 | general condition ([2]; 1 mg/kg iv, day 9 of STZ administration): 10 | general condition ([2]; 1 mg/kg iv, day 10 of STZ administration): 10 | general condition ([2]; 1 mg/kg iv, day 11 of STZ administration): 10 | general condition ([2]; 1 mg/kg iv, day 12 of STZ administration): 10 | general condition ([2]; 1 mg/kg iv, day 13 of STZ administration): 10 | general condition ([2]; 1 mg/kg iv, day 14 of STZ administration): 10 | general condition ([2]; 1 mg/kg iv, day 15 of STZ administration): 10 | general condition ([2]; 1 mg/kg iv, day 16 of STZ administration): 10 | general condition ([2]; 1 mg/kg iv, day 17 of STZ administration): 10 | general condition ([2]; 1 mg/kg iv, day 18 of STZ administration): 10 | general condition ([2]; 1 mg/kg iv, day 19 of STZ administration): 10 | general condition ([2]; 1 mg/kg iv, day 20 of STZ administration): 10 | general condition ([2]; 1 mg/kg iv, day 21 of STZ administration): 10 | general condition ([2]; 1 mg/kg iv, day 22 of STZ administration): 10 | general condition ([2]; 1 mg/kg iv, day 28 of STZ administration): 10 | general condition ([2]; 1 mg/kg iv, day 29 of STZ administration): 10 | general condition ([2]; 1 mg/kg iv, day 30 of STZ administration): 10 | general condition ([2]; 1 mg/kg iv, day 31 of STZ administration): 10 | general condition ([2]; 1 mg/kg iv, day 32 of STZ administration): 10 | general condition ([2]; 1 mg/kg iv, day 33 of STZ administration): 10 | general condition ([2]; 1 mg/kg iv, day 34 of STZ administration): 10 | general condition [2, 5]: 10
